In patent publication US11780849B2, “Imino sulfanone inhibitors of ENPP1” (Volastra Therapeutics, Inc., priority 2020, dated 2023):
Read-outs that look alike come from different tables or passages of the source.

Experiments:
ENPP-1 ECD [1] = biological target: T1, ENPP-1 ECD (Homo sapiens (Human), UniProt P22413); test: Assay 1: inhibition of ENPP1 hydrolysis of 2′,3′-cGAMP (AMP-Glo, […] enzyme)
Description: Assay 1: Test compounds were plated in a 3× dilution scheme in a 384 well plate. […] AMP Detection solution (100 μL) was added to each well, the plate centrifuged and incubated for 60 min.

ENPP-1 ECD [2] = biological target: T1, ENPP-1 ECD; test: Assay 2: inhibition of ENPP1 hydrolysis of 2′,3′-cGAMP (AMP-Glo, […] enzyme)
Description: Assay 2: Compared to the conditions in Assay 1, this assay has a larger dynamic range and ensures the system is under steady-state conditions by reducing the enzyme concentration in the assay.
Test compounds were plated in a 3× dilution scheme in a 384 well plate. […] AMP Detection solution (10 μL) was added to each well, the plate centrifuged and incubated for 60 min.

[3] = biological target: ENPP1 on MDA-MB-231 cells (Homo sapiens (Human), UniProt P22413); test: Assay 3: inhibition of ENPP1 hydrolysis of AMP p-nitrophenyl ester on MDA-MB-231 cells
[4] = Assay 1 (IC50), inhibition of ENPP1 hydrolysis of 2′,3′-cGAMP, no unit in Table 18 (Table 17 legend for this assay uses nM)
[5] = read-out: Assay 1 (IC50), ENPP1 hydrolysis of 2′,3′-cGAMP, AMP-Glo
[6] = Assay 2 (KI), ENPP1 hydrolysis of 2′,3′-cGAMP, AMP-Glo, […] ENPP-1, 24 μM cGAMP
[7] = Assay 2 (KI), inhibition of ENPP1 hydrolysis of 2′,3′-cGAMP, no unit in Table 18 (Table 17 legend for this assay uses nM)
[8] = IC50 in Assay 1, […] ENPP-1 ECD, 24 μM 2,3-cGAMP, pH 8.0
[9] = KI in Assay 2, […] ENPP-1 ECD, 24 μM 2,3-cGAMP, pH 8.0, converted from IC50 via Cheng/Prusoff
[10] = Assay 1 (IC50), ENPP1 hydrolysis of 2′,3′-cGAMP, AMP-Glo
[11] = read-out: Assay 1 (IC50), inhibition of ENPP1 hydrolysis of 2′,3′-cGAMP, no unit in Table 18 (Table 17 legend for this assay uses nM)
[12] = read-out: Assay 2 (KI), ENPP1 hydrolysis of 2′,3′-cGAMP, AMP-Glo, […] ENPP-1, 24 μM cGAMP
[13] = read-out: Assay 2 (KI), inhibition of ENPP1 hydrolysis of 2′,3′-cGAMP, no unit in Table 18 (Table 17 legend for this assay uses nM)
[14] = read-out: Assay 3 (KI, app), apparent KI from IC50 via Cheng/Prusoff, pNP-AMP […], MDA-MB-231 cells, pH 7.4, 37° C., 3 h, unit inferred

Chain of ENPP1 on MDA-MB-231 cells (P22413 whole entry): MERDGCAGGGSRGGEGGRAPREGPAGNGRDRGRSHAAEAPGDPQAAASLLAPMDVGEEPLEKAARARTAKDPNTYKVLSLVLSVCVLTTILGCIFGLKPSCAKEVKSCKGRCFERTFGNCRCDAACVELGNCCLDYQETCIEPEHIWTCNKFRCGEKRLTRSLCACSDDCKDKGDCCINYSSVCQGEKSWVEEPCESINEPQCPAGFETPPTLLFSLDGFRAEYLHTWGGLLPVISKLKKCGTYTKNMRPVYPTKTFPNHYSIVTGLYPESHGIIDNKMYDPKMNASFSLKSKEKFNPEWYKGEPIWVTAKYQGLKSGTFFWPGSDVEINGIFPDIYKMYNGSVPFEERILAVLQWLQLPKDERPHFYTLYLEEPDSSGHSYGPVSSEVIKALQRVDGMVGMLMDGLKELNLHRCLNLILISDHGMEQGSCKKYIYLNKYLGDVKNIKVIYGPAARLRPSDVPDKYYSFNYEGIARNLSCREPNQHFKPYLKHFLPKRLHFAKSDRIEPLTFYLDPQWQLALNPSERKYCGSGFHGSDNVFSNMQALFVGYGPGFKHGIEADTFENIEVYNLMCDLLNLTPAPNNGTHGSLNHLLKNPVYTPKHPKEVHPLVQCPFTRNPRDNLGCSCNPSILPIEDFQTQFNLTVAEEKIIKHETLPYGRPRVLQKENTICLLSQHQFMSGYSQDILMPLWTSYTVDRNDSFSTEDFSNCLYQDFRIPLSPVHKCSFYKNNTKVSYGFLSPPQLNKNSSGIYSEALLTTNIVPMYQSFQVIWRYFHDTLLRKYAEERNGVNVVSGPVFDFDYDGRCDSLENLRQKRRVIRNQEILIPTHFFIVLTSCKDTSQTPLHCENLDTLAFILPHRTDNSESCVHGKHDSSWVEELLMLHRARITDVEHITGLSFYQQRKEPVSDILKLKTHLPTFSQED
T1 sequence (P22413 98-925): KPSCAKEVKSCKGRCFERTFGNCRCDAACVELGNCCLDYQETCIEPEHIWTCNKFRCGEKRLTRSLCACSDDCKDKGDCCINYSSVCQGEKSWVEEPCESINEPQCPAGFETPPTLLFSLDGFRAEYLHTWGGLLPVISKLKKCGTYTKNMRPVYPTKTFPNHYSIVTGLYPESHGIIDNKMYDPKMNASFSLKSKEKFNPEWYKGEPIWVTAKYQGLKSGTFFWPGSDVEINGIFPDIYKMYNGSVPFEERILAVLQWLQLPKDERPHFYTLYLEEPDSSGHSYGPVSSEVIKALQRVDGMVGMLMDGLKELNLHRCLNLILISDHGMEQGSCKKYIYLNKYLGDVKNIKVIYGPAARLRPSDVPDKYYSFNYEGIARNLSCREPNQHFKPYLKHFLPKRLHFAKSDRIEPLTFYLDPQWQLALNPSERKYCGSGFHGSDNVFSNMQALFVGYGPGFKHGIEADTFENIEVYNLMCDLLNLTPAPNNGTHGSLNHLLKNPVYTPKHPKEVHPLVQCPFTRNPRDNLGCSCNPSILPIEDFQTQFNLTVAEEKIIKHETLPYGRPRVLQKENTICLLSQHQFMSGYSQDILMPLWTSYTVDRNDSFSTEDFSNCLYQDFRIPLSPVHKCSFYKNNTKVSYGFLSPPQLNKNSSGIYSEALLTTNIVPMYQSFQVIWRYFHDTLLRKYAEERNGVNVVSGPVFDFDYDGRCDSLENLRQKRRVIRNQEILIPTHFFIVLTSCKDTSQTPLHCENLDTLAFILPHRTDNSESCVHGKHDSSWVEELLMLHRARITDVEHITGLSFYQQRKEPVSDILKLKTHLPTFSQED

SMILES | IC50 (ENPP-1 ECD [1]; [4]) | IC50 (ENPP-1 ECD [1]; [5]) | Ki (ENPP-1 ECD [2]; [6]) | Ki (ENPP-1 ECD [2]; [7]) | Ki [3] | IC50 (ENPP-1 ECD [1]; [8]) | Ki (ENPP-1 ECD [2]; [9]) | IC50 (ENPP-1 ECD [1]; [10]) | IC50 (ENPP-1 ECD [1]; [11]) | Ki (ENPP-1 ECD [2]; [12]) | Ki (ENPP-1 ECD [2]; [13]) | Ki [3, 14]
COc1cc2nccc(Oc3ccc(S(N)(=O)=O)cc3)c2cc1OC [reference compound] |  |  |  |  | 380 nM | 190 nM | 32 nM |  |  |  |  | 
COc1ccc2c(OCc3ccc(S(C)(=N)=O)cc3F)ccnc2c1 (centres unmarked) [Compound 135, (3-fluoro-4-{[(7-methoxyquinolin-4-yl)oxy]methyl}phenyl)(imino)methyl-λ^6-sulfanone] | 7.8 nM |  | < 3 nM | 1.4 nM | 110 nM |  |  |  |  |  |  | 
COc1ccc2c(N3CCC4(CC3)CN(S(C)(=N)=O)C4)ccnc2c1 (centres unmarked) [Compound 53, 7-methoxy-4-(2-(S-methylsulfonimidoyl)-2,7-diazaspiro[3.5]nonan-7-yl)quinoline] | 44 nM |  | 3 to 300 nM | 4.6 nM | 160 nM |  |  | 10 to 1000 nM |  |  |  | 
COc1ccc2c(OCc3ccc([S@@](C)(=N)=O)cc3)ccnc2c1 [Compound 75a] |  | < 10 nM |  |  |  |  |  |  | 3 nM | < 3 nM | 0.38 nM | 22 nM
COc1cc2nncc(Oc3ccc(S(C)(=N)=O)cc3)c2cc1OC (centres unmarked) [Compound 127, {4-[(6,7-dimethoxycinnolin-4-yl)oxy]phenyl}(imino)methyl-λ^6-sulfanone] | 30 nM |  | 3 to 300 nM | 5 nM | 380 nM |  |  | 10 to 1000 nM |  |  |  | 
COc1ccc2c(Oc3ccc(S(C)(=N)=O)nc3)ccnc2c1 (centres unmarked) [Compound 101, imino({5-[(7-methoxyquinolin-4-yl)oxy]pyridin-2-yl})methyl-λ^6-sulfanone] | 40 nM |  | 3 to 300 nM | 5.4 nM | 300 nM |  |  | 10 to 1000 nM |  |  |  | 
COc1cc2ncnc(N3CCC4(CC3)CCN([S@](C)(=N)=O)C4)c2cc1OC [Compound 54b] |  | < 10 nM |  |  |  |  |  |  | 7.6 nM | < 3 nM | 1.3 nM | 130 nM
COc1cc2ncc(C#N)c(Oc3ccc(S(C)(=N)=O)cc3)c2cc1F (centres unmarked) [Compound 44, 6-fluoro-7-methoxy-4-(4-(S-methylsulfonimidoyl)phenoxy)quinoline-3-carbonitrile] | 15 nM |  | < 3 nM | 1.6 nM | 110 nM |  |  | 10 to 1000 nM |  |  |  | 

Next, values leading:

IC50 (ENPP-1 ECD [1]; [4]) | IC50 (ENPP-1 ECD [1]; [5]) | Ki (ENPP-1 ECD [2]; [6]) | Ki (ENPP-1 ECD [2]; [7]) | Ki [3] | IC50 (ENPP-1 ECD [1]; [8]) | Ki (ENPP-1 ECD [2]; [9]) | IC50 (ENPP-1 ECD [1]; [10]) | IC50 (ENPP-1 ECD [1]; [11]) | Ki (ENPP-1 ECD [2]; [12]) | Ki (ENPP-1 ECD [2]; [13]) | Ki [3, 14] | SMILES
4.4 nM | < 10 nM | < 3 nM | 0.49 nM | 31 nM |  |  |  |  |  |  |  | COc1ccc2c(OCc3ccc(S(C)(=N)=O)cc3)ccnc2c1 (centres unmarked) [Compound 75, imino(4-(((7-methoxyquinolin-4-yl)oxy)methyl)phenyl)(methyl)-λ^6-sulfanone]
4.1 nM | < 10 nM | < 3 nM | 0.69 nM | 27 nM | 6.9 nM |  |  |  |  |  |  | COc1cc2ncnc(N3CCC(CCS(C)(=N)=O)CC3)c2cc1OC (centres unmarked) [Compound 8, (2-(1-(6,7-dimethoxyquinazolin-4-yl)piperidin-4-yl)ethyl)(imino)(methyl)-λ^6-sulfanone]
1.1 nM | < 10 nM | < 3 nM | 0.12 nM | 6.2 nM |  |  |  |  |  |  |  | COc1cc2nccc(Oc3ccc(S(=N)(=O)C4CC4)cc3)c2cc1F (centres unmarked) [Compound 120, [cyclopropyl({4-[(6-fluoro-7-methoxyquinolin-4-yl)oxy]phenyl})imino-λ^6-sulfanyl]one]
 |  |  |  | 24 nM | 2.9 nM | 0.47 nM |  |  |  |  |  | COc1cc2ncc(C#N)c(N3CCC4(CC3)CCN(S(N)(=O)=O)C4)c2cc1F [reference compound]
13 nM |  | < 3 nM | 0.87 nM | 45 nM |  |  | 10 to 1000 nM |  |  |  |  | COc1cc2nccc(Oc3ccc([S@@](C)(=N)=O)cc3)c2cc1OC [Compound 1S, (S)-(4-((6,7-dimethoxyquinolin-4-yl)oxy)phenyl)(imino)(methyl)-λ^6-sulfanone]
2 nM | < 10 nM | < 3 nM | 0.32 nM | 29 nM |  |  |  |  |  |  |  | COc1cc2nccc(OCc3ccc(S(C)(=N)=O)cc3)c2cc1F (centres unmarked) [Compound 136]
3.9 nM | < 10 nM | < 3 nM | 0.49 nM | 29 nM |  |  |  |  |  |  |  | COc1cc2ncc(C#N)c(N3CCC(CCS(C)(=N)=O)CC3)c2cc1F (centres unmarked) [Compound 43, 6-fluoro-7-methoxy-4-(4-(2-(S-methylsulfonimidoyl)ethyl)piperidin-1-yl)quinoline-3-carbonitrile]
2.8 nM | < 10 nM | < 3 nM | 0.34 nM | 23 nM |  |  |  |  |  |  |  | COc1ccc2c(Oc3ccc(S(=N)(=O)C4CC4)cc3)ccnc2c1 (centres unmarked) [Compound 60, cyclopropyl(imino)(4-((7-methoxyquinolin-4-yl)oxy)phenyl)-λ^6-sulfanone]
6.2 nM |  | < 3 nM | 0.57 nM | 59 nM |  |  |  |  |  |  |  | COc1cc2nncc(N3CCC(CCS(C)(=N)=O)CC3)c2cc1OC (centres unmarked) [Compound 151, {2-[1-(6,7-dimethoxycinnolin-4-yl)piperidin-4-yl]ethyl}(imino)methyl-λ^6-sulfanone]
